# Where “and” joins values, the source holds several entries; their conditions need not be identical. Identical values can stand only once.
# System: 556581-035-R-J1-PDC complex spheroid growth
# Experiment: Anticancer human tumor 556581-035-R-J1-PDC patient-derived ovarian carcinoma cell line growth inhibition [AhR]
# Conditions: for viability, T/C: stronger effect = lower value; for IC50: curve of compound
# From the text: Multicellular complex tumor spheroid response to aryl hydrocarbon receptor antagonists in combination with a variety of drugs and investigational agents in selected tumor cell lines
# The current study was undertaken to assess response to aryl hydrocarbon receptor antagonists in combination with standard-of-care drugs and investigational agents in solid tumor complex spheroid models. Complex spheroids include a stromal component modeled by human endothelial cells (HUVEC) and fibroblasts modeled by human mesenchymal stem cells (MSCs). The concentration ranges selected for each drug and investigational agent were based upon clinically achievable concentrations if the clinical Cmax of the agent was known.
# Compounds. The drugs and investigational agents: BAY 2416964 (NSC825713), GNF351 (NSC835774), CH-223191 (NSC835775), CPI-455 (NSC825282), aza-TdCyd (NSC777586), decitabine (NSC127716), belinostat (NSC758774), entinostat (NSC756642), pevonedistat (NSC761192), tazemetostat (NSC777109), talazoparib (NSC765396), olaparib (NSC753686), selinexor (NSC780203), nedisertib (M3814, NSC802822), bortezomib (NSC756655), venetoclax (NSC766270), doxorubicin (NSC123127), elimusertib (BAY189344, NSC800525), ceralasertib (AZD6738, NSC777638), TAK-243 (NSC785004), alisertib (NSC759677), etoposide (NSC141540), topotecan (NSC609699), eribulin (NSC707389), gemcitabine (NSC613327), carboplatin (NSC241240), cisplatin (NSC119875), and SN-38 (NSC673596) were obtained from the National Cancer Institute (NCI) Developmental Therapeutics Program Chemical Repository (32). The FDA-approved anticancer drug set is available from the Developmental Therapeutics Program at https://dtp.cancer.gov/organization/dscb/obtaining/available plates.htm. […] The stock solutions were prepared in dimethyl sulfoxide (DMSO, Sigma-Aldrich, St. Louis, MO, cat. D2650), except for the platinum compounds which were prepared in saline (Quality Biological, Gaithersburg, MD, cat. 114-055-101), at 800-fold the tested concentration and stored at -70 degrees C prior to their use. All drugs and investigational agents were tested over a range starting from a high concentration at or near the clinical Cmax and decreasing in half-log increments. If the clinical Cmax for an agent had not been determined, the highest concentration tested was 10 microM (Table 1).
# Cell Culture. All cells were maintained in an incubator at 37 degrees C and 5% CO2 with 95% humidity. The PDC lines were cultured according to standard operating procedures established by the NCI PDMR (https://pdmr.cancer.gov). Briefly, all PDCs were thawed and cultured in Matrigel-coated flasks prepared with a working solution of 1X Ham's F-12 nutrient mix, without supplementation (Invitrogen, Waltham, MA, cat. 11765054), 100 U/mL penicillin-streptomycin (Invitrogen, cat. 15140122), and 2.5% Matrigel (Corning Inc., Corning, NY, cat. 354248) for the first three passages. All PDCs were cultured in complete DMEM/F-12 media containing advanced DMEM/F-12 (Invitrogen, cat. 12634028), 4.9% defined fetal bovine serum, heat inactivated (HyClone Laboratories Inc., Logan, UT, cat. SH30070.03HI), 389 ng/mL hydrocortisone (Sigma-Aldrich, cat. H4001), 9.7 ng/mL human EGF recombinant protein (Invitrogen, cat. PHG0313), 23.4 microg/mL adenine (Sigma-Aldrich, cat. A2786), 97.3 U/mL penicillin-streptomycin (Invitrogen, cat. 15140122), 1.9 mM L-glutamine (Invitrogen, cat. 25030081), and 9.7 microM Y-27632 dihydrochloride (Tocris Bioscience, Bristol, United Kingdom, cat. 1254). The PDCs were cultured in complete DMEM/F12 media without 10 microM Y-27632 dihydrochloride for at least two passages prior to the screen. The established cell lines NCI-H1341 and […] were cultured in DMEM/F-12, HEPES (Invitrogen, cat. 11330032), 5% defined fetal bovine serum (HyClone Laboratories Inc., cat. SH30070.03), ITS premix universal culture supplement [insulin (5 microg/mL), transferrin (5 microg/mL), and selenious acid (5 ng/mL)] […]
# 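Wherever viability, T/C is given: compound exposure lasted 7 days; 100% = DMSO vehicle control growth.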
SMILES,"viability, T/C (compound 0.000949 µM)","viability, T/C (compound 0.003 µM)","viability, T/C (compound 0.00949 µM)","viability, T/C (compound 0.03 µM)","viability, T/C (compound 0.0949 µM)","viability, T/C (compound 0.3 µM)",IC50,"viability, T/C (compound 0.00316 µM)","viability, T/C (compound 0.01 µM)","viability, T/C (compound 0.0316 µM)","viability, T/C (compound 0.1 µM)","viability, T/C (compound 0.316 µM)","viability, T/C (compound 1 µM)","viability, T/C (compound 0.949 µM)","viability, T/C (compound 3 µM)","viability, T/C (compound 0.000316 µM)","viability, T/C (compound 0.001 µM)","viability, T/C (compound 3.16 µM)","viability, T/C (compound 10 µM)"
CC(C)CC(NC(=O)C(Cc1ccccc1)NC(=O)c1cnccn1)B(O)O (stereo not drawn),105% and 95.7% and 87.9%,101% and 97.8% and 87.1%,13.2% and 10.6% and 2.65%,1.02% and 0.36% and 1.1%,0.22% and 0.29% and 0.24%,0.28% and 0.29% and 0.34%,5.87 nM and 5.61 nM and 4.98 nM,,,,,,,,,,,,
CC1COCCN1c1cc(-c2ccnn2C)c2ccnc(-c3ccn[nH]3)c2n1 (stereo not drawn),,,,,,,670 nM and 897 nM and 827 nM,97.2% and 110% and 109%,101% and 105% and 102%,105% and 95.4% and 98.4%,78.3% and 80.3% and 80.1%,58.9% (2×) and 65.4%,45.2% and 48.2% and 48.4%,,,,,,
CCN(c1cc(-c2ccc(CN3CCOCC3)cc2)cc(C(=O)NCc2c(C)cc(C)[nH]c2=O)c1C)C1CCOCC1,,,98.6% and 100% and 96.3%,110% and 102% and 118%,97.2% and 104% and 89.5%,96.6% and 91% and 102%,> 3000 nM,,,,,,,96.9% and 87.3% and 106%,102% and 91.7% and 108%,,,,
CC[C@@]1(O)C(=O)OCc2c1cc1n(c2=O)Cc2cc3c(CN(C)C)c(O)ccc3nc2-1,,,,,,,> 100 nM and 86.9 nM,91.3% and 91.8% and 95.9%,87.9% and 84.7% and 81.2%,77.2% and 66.1% and 69.9%,54.1% and 51.6% and 47%,,,,,101% and 94.3% and 103%,103% and 90.5% and 99.5%,,
CCc1c2c(nc3ccc(O)cc13)-c1cc3c(c(=O)n1C2)COC(=O)[C@]3(O)CC,89.1% and 96% and 90.5%,75% and 95% and 73.6%,54.5% and 61% and 53.9%,39.9% and 46% and 40.5%,17.3% and 25.3% and 22.7%,10.3% and 15.8% and 10.7%,13.6 nM and 21.3 nM and 13.7 nM,,,,,,,,,,,,
COc1cc(C2c3cc4c(cc3C(OC3OC5COC(C)OC5C(O)C3O)C3COC(=O)C23)OCO4)cc(OC)c1O (stereo not drawn),,,,,,,7210 nM and 8060 nM and 9560 nM,,,104% and 107% and 99.2%,103% (2×) and 100%,84.9% and 82.3% and 74.7%,78.2% and 84.1% and 76.3%,,,,,62.1% and 66.4% and 67.5%,45.1% and 44.2% and 47.1%
COc1cccc2c1C(=O)c1c(O)c3c(c(O)c1C2=O)CC(O)(C(=O)CO)CC3OC1CC(N)C(O)C(C)O1 (stereo not drawn),,,,,,,388 nM and 386 nM and 366 nM,,,90.7% and 86.7% and 84.5%,89% and 78.2% and 76.5%,58.8% and 57.2% and 55%,9.14% and 19.1% and 19.5%,,,,,1.93% and 3.75% and 4.65%,3.8% and 2.01% and 3.67%
Cn1ncnc1C1c2n[nH]c(=O)c3cc(F)cc(c23)NC1c1ccc(F)cc1 (stereo not drawn),,,,,,,> 100 nM,101% and 93.3% and 98.7%,92.7% and 93.9% and 101%,100% (2×) and 103%,94.4% and 98.2% and 94.7%,,,,,108% and 106% and 107%,103% and 101% and 102%,,
Nc1ccccc1NC(=O)c1ccc(CNC(=O)OCc2cccnc2)cc1,,,,,,,1860 nM and 2090 nM and 887 nM,,,107% and 100% and 98.1%,90.8% and 105% and 99%,90.4% and 74.8% and 71.6%,63.6% and 66.1% and 48.9%,,,,,37.2% and 42.8% and 26.6%,19.1% and 17% and 18.4%
Nc1ccn(C2OC(CO)C(O)C2(F)F)c(=O)n1 (stereo not drawn),,,,,,,< 31.6 nM,,,32.3% and 35% and 33.6%,38.3% and 35.4% and 37.6%,32.6% and 36.3% and 46.9%,37.1% and 36.9% and 40.4%,,,,,39.2% and 35.1% and 36.5%,31.2% and 31.4% and 32.4%
Nc1ncn(C2CC(O)C(CO)O2)c(=O)n1 (stereo not drawn),,,,,,,> 1000 nM,90.6% and 101% and 102%,101% (2×) and 105%,91.6% and 90.4% and 90.8%,95.1% and 95.6% and 86.2%,95.8% and 81.7% and 82.5%,83.9% and 75.5% and 76.9%,,,,,,
Nc1ncn(C2CC(O)C(CO)S2)c(=O)n1 (stereo not drawn),92% and 102% and 111%,109% and 115% and 113%,102% and 106% and 113%,88% and 106% and 100%,82.2% and 87.7% and 100%,67.3% and 67.2% and 64.9%,> 300 nM,,,,,,,,,,,,
O=C(C=Cn1cnc(-c2cc(C(F)(F)F)cc(C(F)(F)F)c2)n1)NNc1cnccn1,,,91.3% (2×) and 109%,104% and 93.8% and 98.7%,89.4% and 85% and 83.4%,80.2% and 78.5% and 72.8%,2220 nM and > 3000 nM,,,,,,,65.8% and 77.7% and 69.5%,44.5% and 54% and 67.8%,,,,
O=C(c1cc(Cc2n[nH]c(=O)c3ccccc23)ccc1F)N1CCN(C(=O)C2CC2)CC1,,,,,,,> 10000 nM,,,100% and 98.6% and 97.2%,103% and 96.9% and 88.5%,95.3% and 93.3% and 86.6%,102% and 93.8% and 87.4%,,,,,94.5% and 91.3% and 93.1%,74.8% and 82.6% and 69.8%

# Source: PubChem BioAssay AID1918999 (Molecular Pharmacology Branch, DTP, NCI, 2023)
